From PMC10647589, “Heterogeneous Cellular Response of Primary and Metastatic Human Gastric Adenocarcinoma Cell Lines to Magnoflorine and Its Additive Interaction with Docetaxel” (International Journal of Molecular Sciences, 2023)

Columns and labels:
Format in all cases: cell-based
AGS human GC cells [1] = test: Active caspase-3 analysis (flow cytometry); conditions: 72 h
Protocol: (§1) Human GC cells ACC-201, AGS, MKN-74 and NCI-N87 were seeded in 6-well plates and allowed to adhere overnight. On the following day, the growth medium was replaced with fresh medium, and the cells were exposed to indicated concentrations of MGN (10–40 µg/mL) for 72 h. Apoptotic cells were analyzed using PE Active Caspase-3 Apoptosis Kit (BD Biosciences) according to the manufacturer’s instructions. Briefly, the cells were collected, washed with cold PBS and then incubated in Cytofix/Cytoperm Solution for 20 min on ice. After two washes, the cells were incubated with Active Caspase-3 Antibody in Perm/Wash Buffer for 30 min at room temperature. Finally, the cells were resuspended in Perm/Wash Buffer and quantitative analysis of 10,000 cells per sample was performed through the use of FACS CaliburTM flow cytometer (BD Biosciences, Mountain View, CA, USA).

MKN-74 human GC cells [2] = test: Active caspase-3 analysis (flow cytometry); conditions: MKN-74, MGN 10 µg/mL, 72 h
Protocol: as §1

ACC-201 human GC cells [3] = test: Active caspase-3 analysis (flow cytometry); conditions: ACC-201, MGN 10 µg/mL, 72 h
Protocol: as §1

NCI-N87 human GC cells = test: Cell cycle analysis (PI, flow cytometry); conditions: 72 h
Protocol: (§2) Human GC cells ACC-201, AGS, MKN-74 and NCI-N87 were seeded in 6-well plates and allowed to adhere overnight. On the following day, the growth medium was removed, and the cells were treated with indicated concentrations of MGN (10–40 µg/mL) for 72 h. After that, the cells were washed with phosphate-buffered saline (PBS) and fixed in 70% ethanol at 4 °C overnight. Then, the cells were washed with PBS and stained with propidium iodide, utilizing PI/RNase Staining Buffer (BD Biosciences, Heidelberg, Germany) for 15 min in the dark. Cell distribution in different stages of the cell cycle was performed through the use of the FACS CaliburTM flow cytometer (BD Biosciences, Mountain View, CA, USA).

AGS human GC cells [4] = test: Cell cycle analysis (PI, flow cytometry); conditions: 72 h
Protocol: as §2

MKN-74 human GC cells [5] = test: Cell cycle analysis (PI, flow cytometry); conditions: 72 h
Protocol: as §2

ACC-201 human GC cells [6] = test: Cell cycle analysis (PI, flow cytometry); conditions: 72 h
Protocol: as §2

`COc1ccc2c(c1O)-c1c(O)c(OC)cc3c1[C@H](C2)[N+](C)(C)CC3` [MGN, magnoflorine] was tested, and the “% cells with active caspase-3” value (AGS human GC cells [1]; MGN 10 µg/mL) was 2.390 ± 0.411%, the “% cells with active caspase-3” value (AGS human GC cells [1]; MGN 20 µg/mL) was 4.172 ± 0.422% and the “% cells with active caspase-3” value (MKN-74 human GC cells [2]) was 2.633 ± 0.069%. For the same compound, the “% cells with active caspase-3” value (ACC-201 human GC cells [3]) was 6.770 ± 0.866%, the “cells in G1 phase” value (NCI-N87 human GC cells; NCI-N87, MGN 10 µg/mL) was 69.39% ± 3.658 and the “cells in G2 phase” value (NCI-N87 human GC cells; NCI-N87, MGN 10 µg/mL) was 16.52% ± 2.770. The “cells in S phase” value (NCI-N87 human GC cells; NCI-N87, MGN 10 µg/mL) was 11.81% ± 3.808, the “cells in subG1 phase” value (NCI-N87 human GC cells; NCI-N87, MGN 10 µg/mL) was 2.41% ± 2.189 and the “cells in G1 phase” value (NCI-N87 human GC cells; NCI-N87, MGN 20 µg/mL) was 70.17% ± 2.905. The “cells in G2 phase” value (NCI-N87 human GC cells; NCI-N87, MGN 20 µg/mL) was 15.56% ± 2.419, the “cells in S phase” value (NCI-N87 human GC cells; NCI-N87, MGN 20 µg/mL) was 10.44% ± 6.685 and the “cells in subG1 phase” value (NCI-N87 human GC cells; NCI-N87, MGN 20 µg/mL) was 3.93% ± 2.591. The “cells in G1 phase” value (NCI-N87 human GC cells; NCI-N87, MGN 30 µg/mL) was 67.45% ± 3.535, the “cells in G2 phase” value (NCI-N87 human GC cells; NCI-N87, MGN 30 µg/mL) was 16.21% ± 1.874 and the “cells in S phase” value (NCI-N87 human GC cells; NCI-N87, MGN 30 µg/mL) was 10.12% ± 7.739. For the same compound, the “cells in subG1 phase” value (NCI-N87 human GC cells; NCI-N87, MGN 30 µg/mL) was 6.33% ± 2.772, the “cells in G1 phase” value (NCI-N87 human GC cells; NCI-N87, MGN 40 µg/mL) was 64.37% ± 3.651 and the “cells in G2 phase” value (NCI-N87 human GC cells; NCI-N87, MGN 40 µg/mL) was 17.06% ± 2.426. For the same compound, the “cells in S phase” value (NCI-N87 human GC cells; NCI-N87, MGN 40 µg/mL) was 9.24% ± 5.603, the “cells in subG1 phase” value (NCI-N87 human GC cells; NCI-N87, MGN 40 µg/mL) was 9.47% ± 1.163 and the “effect on cell cycle progression” value (NCI-N87 human GC cells; NCI-N87, MGN 10–40 µg/mL) was “Minor changes in cell cycle progression”. For the same compound, the “cells in G1 phase” value (AGS human GC cells [4]; MGN 10 µg/mL) was 58.09% ± 8.195, the “cells in G2 phase” value (AGS human GC cells [4]; MGN 10 µg/mL) was 23.35% ± 12.110 and the “cells in S phase” value (AGS human GC cells [4]; MGN 10 µg/mL) was 17.62% ± 3.599. For the same compound, the “cells in subG1 phase” value (AGS human GC cells [4]; MGN 10 µg/mL) was 1.19% ± 2.437, the “cells in G1 phase” value (AGS human GC cells [4]; MGN 20 µg/mL) was 53.06% ± 12.980 and the “cells in G2 phase” value (AGS human GC cells [4]; MGN 20 µg/mL) was 24.06% ± 16.000. For the same compound, the “cells in S phase” value (AGS human GC cells [4]; MGN 20 µg/mL) was 21.07% ± 2.593, the “cells in subG1 phase” value (AGS human GC cells [4]; MGN 20 µg/mL) was 2.17% ± 2.519 and the “cells in G1 phase” value (AGS human GC cells [4]; MGN 30 µg/mL) was 43.08% ± 14.330. For the same compound, the “cells in G2 phase” value (AGS human GC cells [4]; MGN 30 µg/mL) was 31.77% ± 17.630, the “cells in S phase” value (AGS human GC cells [4]; MGN 30 µg/mL) was 21.55% ± 2.265 and the “cells in subG1 phase” value (AGS human GC cells [4]; MGN 30 µg/mL) was 2.17% ± 3.000. The “cells in G1 phase” value (AGS human GC cells [4]; MGN 40 µg/mL) was 38.15% ± 13.350, the “cells in G2 phase” value (AGS human GC cells [4]; MGN 40 µg/mL) was 39.34% ± 15.720 and the “cells in S phase” value (AGS human GC cells [4]; MGN 40 µg/mL) was 19.89% ± 2.653. The “cells in subG1 phase” value (AGS human GC cells [4]; MGN 40 µg/mL) was 2.98% ± 2.448, the “effect on cell cycle progression” value (AGS human GC cells [4]; MGN 10–40 µg/mL) was “induced the G2/M phase arrest” and the “cells in G1 phase” value (MKN-74 human GC cells [5]; MKN-74, MGN 10 µg/mL) was 69.07% ± 1.886. For the same compound, the “cells in G2 phase” value (MKN-74 human GC cells [5]; MKN-74, MGN 10 µg/mL) was 16.23% ± 1.928, the “cells in S phase” value (MKN-74 human GC cells [5]; MKN-74, MGN 10 µg/mL) was 13.36% ± 0.622 and the “cells in subG1 phase” value (MKN-74 human GC cells [5]; MKN-74, MGN 10 µg/mL) was 1.60% ± 2.688. The “cells in G1 phase” value (MKN-74 human GC cells [5]; MKN-74, MGN 20 µg/mL) was 73.81% ± 4.227, the “cells in G2 phase” value (MKN-74 human GC cells [5]; MKN-74, MGN 20 µg/mL) was 14.14% ± 2.076 and the “cells in S phase” value (MKN-74 human GC cells [5]; MKN-74, MGN 20 µg/mL) was 9.97% ± 1.867. The “cells in subG1 phase” value (MKN-74 human GC cells [5]; MKN-74, MGN 20 µg/mL) was 2.28% ± 2.818, the “cells in G1 phase” value (MKN-74 human GC cells [5]; MKN-74, MGN 30 µg/mL) was 65.90% ± 3.533 and the “cells in G2 phase” value (MKN-74 human GC cells [5]; MKN-74, MGN 30 µg/mL) was 22.92% ± 2.455. For the same compound, the “cells in S phase” value (MKN-74 human GC cells [5]; MKN-74, MGN 30 µg/mL) was 7.72% ± 1.822, the “cells in subG1 phase” value (MKN-74 human GC cells [5]; MKN-74, MGN 30 µg/mL) was 3.59% ± 2.787 and the “cells in G1 phase” value (MKN-74 human GC cells [5]; MKN-74, MGN 40 µg/mL) was 50.20% ± 5.303. The “cells in G2 phase” value (MKN-74 human GC cells [5]; MKN-74, MGN 40 µg/mL) was 35.94% ± 6.691, the “cells in S phase” value (MKN-74 human GC cells [5]; MKN-74, MGN 40 µg/mL) was 8.25% ± 2.280 and the “cells in subG1 phase” value (MKN-74 human GC cells [5]; MKN-74, MGN 40 µg/mL) was 5.60% ± 1.002. The “effect on cell cycle progression” value (MKN-74 human GC cells [5]; MKN-74, MGN 10 and 20 µg/mL vs. 40 µg/mL) was “induced G1/S or G2/M phase cell cycle arrest”, the “cells in G1 phase” value (ACC-201 human GC cells [6]; ACC-201, MGN 10 µg/mL) was 62.76% ± 2.434 and the “cells in G2 phase” value (ACC-201 human GC cells [6]; ACC-201, MGN 10 µg/mL) was 9.96% ± 3.707. For the same compound, the “cells in S phase” value (ACC-201 human GC cells [6]; ACC-201, MGN 10 µg/mL) was 8.74% ± 3.423, the “cells in subG1 phase” value (ACC-201 human GC cells [6]; ACC-201, MGN 10 µg/mL) was 18.52% ± 1.414 and the “cells in G1 phase” value (ACC-201 human GC cells [6]; ACC-201, MGN 20 µg/mL) was 57.23% ± 2.112. The “cells in G2 phase” value (ACC-201 human GC cells [6]; ACC-201, MGN 20 µg/mL) was 8.34% ± 4.237, the “cells in S phase” value (ACC-201 human GC cells [6]; ACC-201, MGN 20 µg/mL) was 8.33% ± 1.647 and the “cells in subG1 phase” value (ACC-201 human GC cells [6]; ACC-201, MGN 20 µg/mL) was 26.06% ± 1.399. For the same compound, the “cells in G1 phase” value (ACC-201 human GC cells [6]; ACC-201, MGN 30 µg/mL) was 49.55% ± 1.820, the “cells in G2 phase” value (ACC-201 human GC cells [6]; ACC-201, MGN 30 µg/mL) was 5.87% ± 5.399 and the “cells in S phase” value (ACC-201 human GC cells [6]; ACC-201, MGN 30 µg/mL) was 6.16% ± 1.340. The “cells in subG1 phase” value (ACC-201 human GC cells [6]; ACC-201, MGN 30 µg/mL) was 38.50% ± 1.886, the “cells in G1 phase” value (ACC-201 human GC cells [6]; ACC-201, MGN 40 µg/mL) was 39.27% ± 3.408 and the “cells in G2 phase” value (ACC-201 human GC cells [6]; ACC-201, MGN 40 µg/mL) was 3.74% ± 1.615. The “cells in S phase” value (ACC-201 human GC cells [6]; ACC-201, MGN 40 µg/mL) was 5.61% ± 1.874 and the “cells in subG1 phase” value (ACC-201 human GC cells [6]; ACC-201, MGN 40 µg/mL) was 51.43% ± 2.072.
